{
  "source": "ChEMBL document CHEMBL1144385",
  "about": "“Solid-phase synthesis and antibacterial evaluations of N-demethylvancomycin derivatives” (2005)",
  "assay_type_in_all_cases": "functional",
  "key": {"[1]": {"system": "Staphylococcus aureus", "test": "Minimum inhibitory concentration against growth of Methicillin resistant […] aureus"}, "[2]": {"system": "Staphylococcus aureus", "test": "Minimum inhibitory concentration against growth of […] aureus (ATCC 29213)"}, "[3]": {"system": "Enterococcus faecalis", "test": "Minimum inhibitory concentration against growth of Enterococcus faecalis (ATCC 29212)"}, "[4]": {"system": "Enterococcus faecalis", "test": "Minimum inhibitory concentration against growth of vancomycin-resistant Enterococcus faecalis (ATCC 51299)"}},
  "data": [
    {"compound": "CC(C)C[C@@H](NC(=O)OCC1c2ccccc2-c2ccccc21)C(=O)N[C@H]1C(=O)N[C@@H](CC(N)=O)C(=O)N[C@H]2C(=O)N[C@H]3C(=O)N[C@H](C(=O)N[C@H](C(=O)NCC(=O)O)c4cc(O)cc(O)c4-c4cc3ccc4O)[C@H](O)c3ccc(c(Cl)c3)Oc3cc2cc(c3O[C@@H]2O[C@@H](CO)[C@@H](O)[C@H](O)[C@@H]2O[C@H]2C[C@](C)(N)[C@H](O)[C@H](C)O2)Oc2ccc(cc2Cl)[C@H]1O", "values": [
      {"measurement": "MIC", "setting": "[1]", "value": 5, "unit": "µg/mL"},
      {"measurement": "MIC", "setting": "[2]", "value": 1.25, "unit": "µg/mL"},
      {"measurement": "MIC", "setting": "[3]", "value": 5, "unit": "µg/mL"},
      {"measurement": "MIC", "setting": "[4]", "value": "> 10", "unit": "µg/mL"}
    ]},
    {"compound": "CCC(CC)N[C@H](CC(C)C)C(=O)N[C@H]1C(=O)N[C@@H](CC(N)=O)C(=O)N[C@H]2C(=O)N[C@H]3C(=O)N[C@H](C(=O)N[C@H](C(=O)NCC(=O)O)c4cc(O)cc(O)c4-c4cc3ccc4O)[C@H](O)c3ccc(c(Cl)c3)Oc3cc2cc(c3O[C@@H]2O[C@@H](CO)[C@@H](O)[C@H](O)[C@@H]2O[C@H]2C[C@](C)(Nc3ccc(F)cc3)[C@H](O)[C@H](C)O2)Oc2ccc(cc2Cl)[C@H]1O", "values": [
      {"measurement": "MIC", "setting": "[1]", "value": "> 10", "unit": "µg/mL"},
      {"measurement": "MIC", "setting": "[2]", "value": "> 10", "unit": "µg/mL"},
      {"measurement": "MIC", "setting": "[3]", "value": "> 10", "unit": "µg/mL"},
      {"measurement": "MIC", "setting": "[4]", "value": "> 10", "unit": "µg/mL"}
    ]},
    {"compound": "CCCN[C@H](CC(C)C)C(=O)N[C@H]1C(=O)N[C@@H](CC(N)=O)C(=O)N[C@H]2C(=O)N[C@H]3C(=O)N[C@H](C(=O)N[C@H](C(=O)NCC(=O)O)c4cc(O)cc(O)c4-c4cc3ccc4O)[C@H](O)c3ccc(c(Cl)c3)Oc3cc2cc(c3O[C@@H]2O[C@@H](CO)[C@@H](O)[C@H](O)[C@@H]2O[C@H]2C[C@](C)(Nc3ccc(-c4ccccc4)cc3)[C@H](O)[C@H](C)O2)Oc2ccc(cc2Cl)[C@H]1O", "values": [
      {"measurement": "MIC", "setting": "[1]", "value": 5, "unit": "µg/mL"},
      {"measurement": "MIC", "setting": "[2]", "value": 5, "unit": "µg/mL"},
      {"measurement": "MIC", "setting": "[3]", "value": 10, "unit": "µg/mL"},
      {"measurement": "MIC", "setting": "[4]", "value": "> 10", "unit": "µg/mL"}
    ]},
    {"compound": "C/C=C/CN(C/C=C/C)[C@H](CC(C)C)C(=O)N[C@H]1C(=O)N[C@@H](CC(N)=O)C(=O)N[C@H]2C(=O)N[C@H]3C(=O)N[C@H](C(=O)N[C@H](C(=O)NCC(=O)O)c4cc(O)cc(O)c4-c4cc3ccc4O)[C@H](O)c3ccc(c(Cl)c3)Oc3cc2cc(c3O[C@@H]2O[C@@H](CO)[C@@H](O)[C@H](O)[C@@H]2O[C@H]2C[C@](C)(Nc3ccc(Cl)cc3)[C@H](O)[C@H](C)O2)Oc2ccc(cc2Cl)[C@H]1O", "values": [
      {"measurement": "MIC", "setting": "[1]", "value": "> 10", "unit": "µg/mL"},
      {"measurement": "MIC", "setting": "[2]", "value": "> 10", "unit": "µg/mL"},
      {"measurement": "MIC", "setting": "[3]", "value": "> 10", "unit": "µg/mL"},
      {"measurement": "MIC", "setting": "[4]", "value": "> 10", "unit": "µg/mL"}
    ]},
    {"compound": "C/C=C/CN(C/C=C/C)[C@H](CC(C)C)C(=O)N[C@H]1C(=O)N[C@@H](CC(N)=O)C(=O)N[C@H]2C(=O)N[C@H]3C(=O)N[C@H](C(=O)N[C@H](C(=O)NCC(=O)O)c4cc(O)cc(O)c4-c4cc3ccc4O)[C@H](O)c3ccc(c(Cl)c3)Oc3cc2cc(c3O[C@@H]2O[C@@H](CO)[C@@H](O)[C@H](O)[C@@H]2O[C@H]2C[C@](C)(Nc3ccc(OC)cc3)[C@H](O)[C@H](C)O2)Oc2ccc(cc2Cl)[C@H]1O", "values": [
      {"measurement": "MIC", "setting": "[1]", "value": "> 10", "unit": "µg/mL"},
      {"measurement": "MIC", "setting": "[2]", "value": 10, "unit": "µg/mL"},
      {"measurement": "MIC", "setting": "[3]", "value": "> 10", "unit": "µg/mL"},
      {"measurement": "MIC", "setting": "[4]", "value": "> 10", "unit": "µg/mL"}
    ]},
    {"compound": "CN[C@H](CC(C)C)C(=O)N[C@H]1C(=O)N[C@@H](CC(N)=O)C(=O)N[C@H]2C(=O)N[C@H]3C(=O)N[C@H](C(=O)N[C@H](C(=O)NCC(=O)O)c4cc(O)cc(O)c4-c4cc3ccc4O)[C@H](O)c3ccc(c(Cl)c3)Oc3cc2cc(c3O[C@@H]2O[C@@H](CO)[C@@H](O)[C@H](O)[C@@H]2O[C@H]2C[C@](C)(NC(=O)OCC3c4ccccc4-c4ccccc43)[C@H](O)[C@H](C)O2)Oc2ccc(cc2Cl)[C@H]1O", "values": [
      {"measurement": "MIC", "setting": "[1]", "value": 5, "unit": "µg/mL"},
      {"measurement": "MIC", "setting": "[2]", "value": "> 10", "unit": "µg/mL"},
      {"measurement": "MIC", "setting": "[3]", "value": 10, "unit": "µg/mL"},
      {"measurement": "MIC", "setting": "[4]", "value": 5, "unit": "µg/mL"}
    ]},
    {"compound": "CC(C)C[C@@H](N)C(=O)N[C@H]1C(=O)N[C@@H](CC(N)=O)C(=O)N[C@H]2C(=O)N[C@H]3C(=O)N[C@H](C(=O)N[C@H](C(=O)NCC(=O)O)c4cc(O)cc(O)c4-c4cc3ccc4O)[C@H](O)c3ccc(c(Cl)c3)Oc3cc2cc(c3O[C@@H]2O[C@@H](CO)[C@@H](O)[C@H](O)[C@@H]2O[C@H]2C[C@](C)(Nc3ccc(F)cc3)[C@H](O)[C@H](C)O2)Oc2ccc(cc2Cl)[C@H]1O", "values": [
      {"measurement": "MIC", "setting": "[1]", "value": 2.5, "unit": "µg/mL"},
      {"measurement": "MIC", "setting": "[2]", "value": 2.5, "unit": "µg/mL"},
      {"measurement": "MIC", "setting": "[3]", "value": 2.5, "unit": "µg/mL"},
      {"measurement": "MIC", "setting": "[4]", "value": "> 10", "unit": "µg/mL"}
    ]},
    {"compound": "CCCN(CCC)[C@H](CC(C)C)C(=O)N[C@H]1C(=O)N[C@@H](CC(N)=O)C(=O)N[C@H]2C(=O)N[C@H]3C(=O)N[C@H](C(=O)N[C@H](C(=O)NCC(=O)O)c4cc(O)cc(O)c4-c4cc3ccc4O)[C@H](O)c3ccc(c(Cl)c3)Oc3cc2cc(c3O[C@@H]2O[C@@H](CO)[C@@H](O)[C@H](O)[C@@H]2O[C@H]2C[C@](C)(Nc3ccc(OC)cc3)[C@H](O)[C@H](C)O2)Oc2ccc(cc2Cl)[C@H]1O", "values": [
      {"measurement": "MIC", "setting": "[1]", "value": 10, "unit": "µg/mL"},
      {"measurement": "MIC", "setting": "[2]", "value": "> 10", "unit": "µg/mL"},
      {"measurement": "MIC", "setting": "[3]", "value": "> 10", "unit": "µg/mL"},
      {"measurement": "MIC", "setting": "[4]", "value": "> 10", "unit": "µg/mL"}
    ]},
    {"compound": "CCC(CC)N[C@H](CC(C)C)C(=O)N[C@H]1C(=O)N[C@@H](CC(N)=O)C(=O)N[C@H]2C(=O)N[C@H]3C(=O)N[C@H](C(=O)N[C@H](C(=O)NCC(=O)O)c4cc(O)cc(O)c4-c4cc3ccc4O)[C@H](O)c3ccc(c(Cl)c3)Oc3cc2cc(c3O[C@@H]2O[C@@H](CO)[C@@H](O)[C@H](O)[C@@H]2O[C@H]2C[C@](C)(Nc3ccc(OC)cc3)[C@H](O)[C@H](C)O2)Oc2ccc(cc2Cl)[C@H]1O", "values": [
      {"measurement": "MIC", "setting": "[1]", "value": "> 10", "unit": "µg/mL"},
      {"measurement": "MIC", "setting": "[2]", "value": "> 10", "unit": "µg/mL"},
      {"measurement": "MIC", "setting": "[3]", "value": "> 10", "unit": "µg/mL"},
      {"measurement": "MIC", "setting": "[4]", "value": "> 10", "unit": "µg/mL"}
    ]},
    {"compound": "CCCN(CCC)[C@H](CC(C)C)C(=O)N[C@H]1C(=O)N[C@@H](CC(N)=O)C(=O)N[C@H]2C(=O)N[C@H]3C(=O)N[C@H](C(=O)N[C@H](C(=O)NCC(=O)O)c4cc(O)cc(O)c4-c4cc3ccc4O)[C@H](O)c3ccc(c(Cl)c3)Oc3cc2cc(c3O[C@@H]2O[C@@H](CO)[C@@H](O)[C@H](O)[C@@H]2O[C@H]2C[C@](C)(Nc3ccc(-c4ccccc4)cc3)[C@H](O)[C@H](C)O2)Oc2ccc(cc2Cl)[C@H]1O", "values": [
      {"measurement": "MIC", "setting": "[1]", "value": 5, "unit": "µg/mL"},
      {"measurement": "MIC", "setting": "[2]", "value": 5, "unit": "µg/mL"},
      {"measurement": "MIC", "setting": "[3]", "value": "> 10", "unit": "µg/mL"},
      {"measurement": "MIC", "setting": "[4]", "value": "> 10", "unit": "µg/mL"}
    ]}
  ]
}
